Laboratory results: patent publication US4073918A, “Phenoxyalkylcarboxylic acid amides of substituted thiazolidinecarboxylic acids and their utilization in medicaments” (Ludwig Merckle KG, priority 1974, dated 1978)

Columns and labels:
laboratory rats [1] = conditions: Literature reference; 20160 min; cited from earlier work
normal lipemic CFY-rat = experiment: Normolipemic test (serum cholesterol and triglycerides); type: in vivo; conditions: 14 days; for Serum Cholesterol / Serum Triglycerides: 24 h after last administration; for Serum Cholesterol, Lowering % / Serum Triglycerides, Lowering %: vs control
Procedure: (§1) In contrast therewith, the inventive compounds having the general formula (I) show based on the normal lipemic as well as the hypercholesteremic rat models, a distinct anti-lipemic and, in particular anti-cholesteremic effect. […] This activity loss of clofibrate on the hyperlipemic demands is also found a number of times in the literature. The antilipemic activity of the inventive compounds, as well as that of clofibrate as the reference substance, was determined on a normal lipemic CFY-rat during an examination time period of 14 days. During this time, the animals received a normal laboratory diet. (Spratt's No. 1).
(§2) After a 4-day acclimatization period the animals orally received the test compound as a suspension in 1% tragacanth-solution, or the vehicle alone (control group). The control-group consisted of 20 animals, while the test groups contained 10 animals. 24 hours after the last administration, blood samples were taken for determining the serum triglycerides and serum cholesterol level.

hypercholesteremic rat = experiment: Hypercholesteremic test (serum cholesterol and triglycerides); type: in vivo; conditions: for Serum Cholesterol / Serum Triglycerides: hypercholesteremic rat (2% cholesterol, 1% cholic acid diet); for Serum Cholesterol, Lowering % / Serum Triglycerides, Lowering %: hypercholesteremic rat, vs control
Procedure: as §1, §2
The hypercholesteremic test was carried out on the same animals and under the same examining conditions, as was carried out in the normal lipemic test. The animals received a normal laboratory diet (Spratt's No. 2), having added thereto 2% cholesterol and 1% cholic acid.

[2] = in vivo; cited from earlier work
[3] = test system: galactosamine-hepatitis-model; conditions: Arzneimittel-Forschung 23, 56, 1973, cited from earlier work
[4] = Pharmacological screening for 51 pharmacological parameters; type: in vivo
[5] = Acute oral toxicity (LD50, Litchfield and Wilcoxon); type: in vivo; conditions: in vivo, rat, suspension in 0.5% aqueous Tween 80, observation 14 days
Procedure: (§3) The acute oral toxicity of the inventive compounds of Examples 18 and 23 was tested on, respectively, five male and female laboratory rats each having a weight of 200 ± 20g. The compounds tested were prepared as suspension in 0.5 %-aqueous Tween 80-solution. The observation time period was 14 days. The determination of the LD50 -values was carried out pursuant to the methods of Litchfield and Wilcoxon.

mouse = experiment: Pharmacological screening, abdominal tone in the mouse; type: in vivo; conditions: 100 mg/kg intraperitoneal
laboratory rats [6] = experiment: Acute oral toxicity (LD50, Litchfield and Wilcoxon); type: in vivo; conditions: rat, 14 days, Litchfield and Wilcoxon
Procedure: as §3

Structure (SMILES) | Serum Cholesterol (normal lipemic CFY-rat; 300 mg/kg oral) | Serum Triglycerides (normal lipemic CFY-rat; 300 mg/kg oral) | Serum Cholesterol, Lowering % (normal lipemic CFY-rat; 300 mg/kg oral) | Serum Triglycerides, Lowering % (normal lipemic CFY-rat; 300 mg/kg oral) | Serum Cholesterol (hypercholesteremic rat; 300 mg/kg oral) | Serum Triglycerides (hypercholesteremic rat; 300 mg/kg oral) | Serum Cholesterol, Lowering % (hypercholesteremic rat; 300 mg/kg oral) | Serum Cholesterol (normal lipemic CFY-rat; 100 mg/kg oral) | Serum Triglycerides (normal lipemic CFY-rat; 100 mg/kg oral) | Serum Triglycerides, Lowering % (normal lipemic CFY-rat; 100 mg/kg oral) | Serum Cholesterol (hypercholesteremic rat; 100 mg/kg oral) | Serum Triglycerides (hypercholesteremic rat; 100 mg/kg oral) | side effects in pharmacological screening [4] | Serum Cholesterol, Lowering % (hypercholesteremic rat; 100 mg/kg oral) | further results
CCOC(=O)C(C)(C)Oc1ccc(Cl)cc1 [Clofibrate, 2-(p-chlorophenoxy)-2-methylpropionic acid ethyl ester, reference compound] | 56.1 mg % | 66.5 mg % | 27.0% | 46.3% | 347.9 mg % | 75.6 mg % | 3.0% | – | – | – | – | – | – | – | LD50 (laboratory rats [1]): ~1200 mg/kg; activity on the hypercholesteremic models (in words) (hypercholesteremic rat; hypercholesteremic models): shows no more activity; Serum Triglycerides, Lowering % (hypercholesteremic rat; 300 mg/kg oral): 12.5%
CC(C)(S)[C@@H](N)C(=O)O [D-penicillamine] | – | – | – | – | – | – | – | – | – | – | – | – | – | – | known side effects [2]: allergic reactions, leukopenia or gastrointestinal disturbances; influence on lipid material exchange (in words) [3]: satisfactory influence on lipid material exchange; liver protective effect; release of SH-groups, stimulation of nucleic acids and protein synthesis (in words) ([3]; galactosamine-hepatitis-model): These properties are also shown by D-penicillamine
CC(C)(Oc1ccc(Cl)cc1)C(=O)NCC1NC(C(=O)O)C(C)(C)S1 (centres unmarked) [Example 17] | 81.5 mg % | 91.2 mg % | 13.1% | – | 296.1 mg % | 96.4 mg % | 7.2% | 81.8 mg % | 77.3 mg % | 11.2% | 353.8 mg % | 85.0 mg % | no special side effects were seen | – | Serum Cholesterol, Lowering % (normal lipemic CFY-rat; 100 mg/kg oral): 12.8%; Serum Triglycerides, Lowering % (hypercholesteremic rat; 100 mg/kg oral): 1.2%
CC(Oc1ccc(Cl)cc1)C(=O)N1C(C(=O)O)C(C)(C)SC1(C)C (centres unmarked) [Example 18, 2,2,5,5-tetramethyl-3-2-(p-chlorophenoxy)propionyl!-thiazolidine-4-carboxylic acid] | 95.3 mg % | 82.5 mg % | – | 12.6% | 470.3 mg % | 72.4 mg % | 20.5% | 95.8 mg % | 68.7 mg % | 27.2% | 412.9 mg % | 71.4 mg % | no special side effects were seen | 30.2% | LD50 at 336 h [5]: > 5000 mg/kg; abdominal tone (mouse): a small reduction of the abdominal tone was observed
CC(C)(Oc1ccc(Cl)cc1)C(=O)N1C(C(=O)O)C(C)(C)SC1(C)C (centres unmarked) [Example 19] | 82.0 mg % | 72.7 mg % | 4.9% | 23.0% | 595.6 mg % | 66.0 mg % | – | 93.1 mg % | 75.2 mg % | 20.3% | 549.1 mg % | 65.9 mg % | – | 7.1% | –
CC1(C)SC(C)(C)N(C(=O)COc2ccc(Cl)cc2)C1C(=O)O (centres unmarked) [Example 20, 2,2,5,5-tetramethyl-3-(p-chlorophenoxyacetyl)-thiazolidine-4-carboxylic acid] | 73.0 mg % | 66.0 mg % | 15.3% | 30.1% | 479.6 mg % | 92.2 mg % | 18.9% | 87.8 mg % | 67.6 mg % | 28.4% | 503.9 mg % | 88.1 mg % | – | 14.8% | –
CC(C)(Oc1ccc(Cl)cc1)C(=O)NCC1SC(C)(C)C(C(=O)O)N1C(=O)COc1ccc(Cl)cc1 (centres unmarked) [Example 21, 2-2-(p-chlorophenoxy)-2-methyl-propionylamidomethyl!-5,5-dimethyl-3-(p-chlorophenoxyacetyl)-thilazolidine-4-carboxylic acid] | 90.8 mg % | 72.4 mg % | 5.9% | – | 465.1 mg % | 41.3 mg % | – | 89.4 mg % | 59.1 mg % | 11.4% | 501.2 mg % | 51.0 mg % | no special side effects were seen | – | Serum Cholesterol, Lowering % (normal lipemic CFY-rat; 100 mg/kg oral): 7.3%; Serum Triglycerides, Lowering % (hypercholesteremic rat; 100 mg/kg oral): 5.9%; Serum Triglycerides, Lowering % (hypercholesteremic rat; 300 mg/kg oral): 23.9%
CC1(C)SC2(CCCCC2)N(C(=O)COc2ccc(Cl)cc2)C1C(=O)O (centres unmarked) [Example 23] | – | – | – | – | – | – | – | – | – | – | – | – | – | – | Effective limits (of LD50) (laboratory rats [6]): 3680 to 5130 mg/kg; LD50 at 336 h [5]: 4350 mg/kg
